Like-named read-outs stand apart in the source and are kept apart here.
How the values were obtained:
[1] = Cytotoxicity against Vero cells (CPE monitoring, neutral red uptake); assay type: cell-based; details: African green monkey; for CC50 at 72 h: Vero cells, neutral red uptake, three independent experiments
Protocol: The cytotoxicity of the compounds against Vero cells was determined by monitoring the CPE. Vero cells (2.5 × 10^4/well) were plated in the wells of a 96-well plate. After 24 h, the cell monolayer was incubated with different concentrations of the test compounds for 72 h at 37 °C under a 5% CO2 atmosphere in a CO2 incubator and then monitored for CPE. The appropriate negative and positive controls were used. A neutral red uptake assay was used to assess cell viability. The half-maximal (50%) cytotoxic concentration (CC50) of each compound was determined from the dose-response curve.

ZIKV strain SZ01 = assay: CPE inhibition assay, anti-ZIKV activity in Vero cells; assay type: cell-based, Zika virus; details: for cell death rate compared with mock-treated ZIKV-infected cells: P < 0.05, two-tailed Student's t-test; for EC50: Zika virus, ZIKV strain SZ01, 68.6 TCID50, Vero cells, neutral red uptake, three independent experiments
YFV [2] = details: cited from earlier work
YFV [3] = details: at low concentrations; cited from earlier work

Row | SMILES | CC50 at 72 h [1] [µM] | other results
1 | CCCCCCCCCCCCCCCCOCCCOP(=O)(O)CO[C@H](CO)Cn1ccc(N)nc1=O [CMX001, brincidofovir] |  | CC50 [1]: 11.3 ± 0.2 µM; anti-ZIKV activity (ZIKV strain SZ01): not active; effect on ZIKV-induced CPE or cell death (ZIKV strain SZ01): little or no effect
2 | CCn1ccnc(C(N)=O)c1=O [Compound 1, 4-ethyl-3-oxo-3,4-dihydropyrazine-2-carboxamide] | > 1000 | 
3 | CC(=O)OCCOCn1ccnc(C(N)=O)c1=O [Compound 2, 2-((3-carbamoyl-2-oxopyrazin-1(2H)-yl)methoxy) ethyl acetate] | > 2000 | 
4 | NC(=O)c1nccn(COCCO)c1=O [Compound 3, 4-((2-hydroxyethoxy)methyl)-3-oxo-3,4-dihydropyrazine-2-carboxamide] | > 1000 | 
5 | NC(=O)c1nccn(CC(O)COC(c2ccccc2)(c2ccccc2)c2ccccc2)c1=O (stereo not shown) [Compound 4, 4-(2-hydroxy-3-(trityloxy)propyl)-3-oxo-3,4-dihydropyrazine-2-carboxamide] | > 500 | 
6 | NC(=O)c1nccn(CC(O)CO)c1=O (stereo not shown) [Compound 5, 4-(2,3-dihydroxypropyl)-3-oxo-3,4-dihydropyrazine-2-carboxamide] | > 2000 | 
7 | NC(=O)c1nccn(C2OC(CO)C(O)C2O)c1=O (stereo not shown) [Compound 6, 4-(3,4-dihydroxy-5-(hydroxymethyl)tetrahydrofuran-2-yl)-3-oxo-3,4-dihydropyrazine-2-carboxamide] | > 1000 | efficacy in a hamster model of YFV infection (YFV [2]): effective; activity in cell culture (YFV [3]): only slight activity
8 | CC(=O)OCCOCn1cc(F)nc(C(N)=O)c1=O [Compound 7, 2-((3-carbamoyl-5-fluoro-2-oxopyrazin-1(2H)-yl)methoxy) ethyl acetate] | > 1000 | 
9 | NC(=O)c1nc(F)cn(CC(O)COC(c2ccccc2)(c2ccccc2)c2ccccc2)c1=O (stereo not shown) [Compound 8, 6-fluoro-4-(2-hydroxy-3-(trityloxy)propyl)-3-oxo-3,4-dihydropyrazine-2-carboxamide] | > 500 | 
10 | NC(=O)c1nc(F)cn(C2OC(CO)C(O)C2O)c1=O (stereo not shown) [Compound 9, 4-(3,4-dihydroxy-5-(hydroxymethyl)tetrahydrofuran-2-yl)-6-fluoro-3-oxo-3,4-dihydropyrazine-2-carboxamide] | > 1000 | 
11 | NC(=O)c1nc([N+](=O)[O-])cnc1O [Compound 10, 6-nitropyrazine-3-hydroxy-2-carboxamide] | > 4000 | 
12 | NC(=O)c1nc(Br)cnc1O [Compound 11, 6-bromo-3-hydroxypyrazine-2-carboxamide] | > 2000 | 
13 | COc1cnc(O)c(C(N)=O)n1 [Compound 12, 3-hydroxy-6-methoxypyrazine-2-carboxamide] | > 1000 | 
14 | CCOc1cnc(O)c(C(N)=O)n1 [Compound 13, 6-ethoxy-3-hydroxypyrazine-2-carboxamide] | > 500 | 
15 | CCCOc1cnc(O)c(C(N)=O)n1 [Compound 14, 3-hydroxy-6-propoxypyrazine-2-carboxamide] | > 500 | 
16 | CC(C)Oc1cnc(O)c(C(N)=O)n1 [Compound 15, 6-isopropoxypyrazine-3-hydroxy-2-carboxamide] | 345 ± 48.4 | 
17 | CCCCOc1cnc(O)c(C(N)=O)n1 [Compound 16, 6-butoxy-3-hydroxypyrazine-2-carboxamide] | 310 ± 15.2 | 
18 | CCCCCOc1cnc(O)c(C(N)=O)n1 [Compound 17, 3-hydroxy-6-(pentyloxy)pyrazine-2-carboxamide] | 260 ± 51.1 | 
19 | CCCCCCCCOc1cnc(O)c(C(N)=O)n1 [Compound 18, 3-hydroxy-6-(octyloxy)pyrazine-2-carboxamide] | 245 ± 17.8 | 
20 | NC(=O)c1nc(OCCO)cnc1O [Compound 19, 3-hydroxy-6-(2-hydroxyethoxy) pyrazine-2-carboxamide] | > 1000 | 
21 | COCCOc1cnc(O)c(C(N)=O)n1 [Compound 20, 3-hydroxy-6-(2-methoxyethoxy) pyrazine-2-carboxamide] | > 1000 | 
22 | NC(=O)c1nc(F)c[nH]c1=O [Compound T-705, favipiravir] | > 3000 | cell death rate compared with mock-treated ZIKV-infected cells (ZIKV strain SZ01): significantly reduced; EC50 (ZIKV strain SZ01): 111 ± 13.1 µM
23 | NC(=O)c1nccnc1O [Compound T-1105, 3-hydroxypyrazine-2-carboxamide] | > 4000 | cell death rate compared with mock-treated ZIKV-infected cells (ZIKV strain SZ01): significantly reduced; EC50 (ZIKV strain SZ01): 97.5 ± 6.8 µM
24 | NC(=O)c1ncn([C@@H]2O[C@H](CO)[C@@H](O)[C@H]2O)n1 [Ribavirin] | > 2000 | effect on ZIKV-induced CPE or cell death (ZIKV strain SZ01; Vero cells, ZIKV strain SZ01): little or no effect; anti-ZIKV activity (ZIKV strain SZ01; at concentrations below 400 μM): not active

Reference: publication PMC5563514, “Viral polymerase inhibitors T-705 and T-1105 are potential inhibitors of Zika virus replication” (Archives of Virology, 2017)
